Experimental data: patent US7635696B2, “Isoxazoline-indole derivatives with an improved antipsychotic and anxiolytic activity” (Janssen Pharmaceutica N.V., priority 2004, dated 2009)

Tests used:
[1] = target: T1, Human Dopamine D3 receptor (Homo sapiens, UniProt P35462); assay: Binding experiment for dopamine D3 receptor ([125I]Iodosulpride); conditions: transfected CHO cell membranes; for IC50: read-out: pIC50 D3 (converted)
T1 construct: expressed in transfected cells; host or cells: CHO cells
Description: (§1) The interaction of the compounds of Formula (I) with dopamine-receptors, h5HT-transporter and h5HT1A receptor was assessed in in vitro radioligand binding experiments. In general, a low concentration of a radioligand with a high binding affinity for a particular receptor or transporter is incubated with a sample of a tissue preparation enriched in a particular receptor or transporter or with a preparation of cells expressing cloned human receptors in a buffered medium. During the incubation, the radioligand binds to the receptor or transporter. When equilibrium of binding is reached, the receptor bound radioactivity is separated from the non-bound radioactivity, and the receptor- or transporter-bound activity is counted. The interaction of the test compounds with the receptor is assessed in competition binding experiments. Various concentrations of the test compound are added to the incubation mixture containing the receptor- or transporter preparation and the radioligand. The test compound in proportion to its binding affinity and its concentration inhibits binding of the radioligand.
Human Dopamine D3 receptor-transfected CHO cells were collected by scraping into ice-cold Tris-HCl buffer (50 mM, pH 7.4). The suspension was centrifuged (23 500×g, 10 min, 4° C.) and pellets stored at −70° C. until required. They were then thawed and briefly homogenised using an Ultra-Turrax T25 homogeniser prior to dilution to an appropriate protein concentration optimised for specific and non-specific binding. [^125I]Iodosulpride (Amersham, specific activity 2000 Ci/mmol) was diluted in Tris-HCl assay buffer containing NaCl, CaCl2, MgCl2, KCl and BSA (50, 120, 2, 1, 5 mM, 0.1% respectively, adjusted to pH 7.7 with HCl) at a concentration of 2 nmol/L. Prepared radioligand (20 μl) was incubated (60 min, RT) and with 20 μl of either the 10% DMSO control, Risperidone (10^−6 mol/L final concentration), or compound of interest, then with membrane preparations (80 μl). Overnight incubation followed after addition of WGA-coated PVT SPA beads (250 μl; Amersham) and membrane-bound counts measured in a Wallac Microbeta. % Specific bound and competition binding curves were calculated using S-Plus software (Insightful).

[2] = target: T2, Human Dopamine D2L receptor (Homo sapiens, UniProt P14416); assay: Binding experiment for dopamine D2 receptor ([3H]Spiperone); conditions: D2L-transfected CHO cell membranes; for IC50: read-out: pIC50 D2 (converted)
T2 construct: expressed in transfected cells; host or cells: CHO cells
Description: as §1
Human Dopamine D2L receptor-transfected CHO cells were collected by scraping into ice-cold Tris-HCl buffer (50 mM, pH 7.4). The suspension was centrifuged (23 500×g, 10 min, 4° C.) and pellets stored at −70° C. until required. They were then thawed and briefly homogenised using an Ultra-Turrax T25 homogeniser prior to dilution to an appropriate protein concentration optimised for specific and non-specific binding. [^3H]Spiperone (NEN, specific activity ˜70 Ci/mmol) was diluted in Tris-HCl assay buffer containing NaCl, CaCl2, MgCl2, KCl (50, 120, 2, 1, and 5 mM respectively, adjusted to pH 7.7 with HCl) at a concentration of 2 nmol/L. Prepared radioligand (50 μl) was then incubated (30 min, 37° C.) with membrane preparations pre-diluted to an appropriate protein concentration (400 μl), and with 50 μl of either the 10% DMSO control, Butaclamol (10^−6 mol/L final concentration), or compound of interest. Membrane-bound activity was detected by filtration through a Packard Filtermate harvester onto Unifilterplates, washing with ice-cold Tris-HCl buffer (50 mM; pH8.0; 3×4 ml). Filters were allowed to dry before adding scintillation fluid and counting in a Topcount scintillation counter. % Specific bound and competition binding curves were calculated using S-Plus software (Insightful).

human 5HT transporter = target: T3, human 5HT transporter (Homo sapiens, UniProt P31645); assay: Binding experiment for 5-HT transporter ([3H]Paroxetine); conditions: transfected HEK cell membranes, [3H]Paroxetine; for IC50: read-out: pIC50 5HTT (converted)
T3 construct: host or cells: HEK cells
Description: as §1
Frozen human 5HT transporter-transfected HEK cells (Perkin Elmer, Brussels) were thawed and briefly homogenised using an Ultra-Turrax T25 homogeniser prior to dilution to an appropriate protein concentration optimised for specific and non-specific binding. [^3H]Paroxetine (NEN, specific activity 20 Ci/mmol) was diluted in Tris-HCl assay buffer containing NaCl and KCl (50 mM, 120 mM and 5 mM, respectively; pH 7.4) at a concentration of 5 nmol/L. Prepared radioligand (25 μl) was then incubated (60 min, 25° C.) with membrane preparations (200 μl) and with 25 μl of either 10% DMSO control, Inipramine (10^−6 mol/L final concentration), or compound of interest. Membrane-bound activity was detected by filtration through a Packard Filtermate harvester onto Unifilterplates pre-soaked in 0.1% PEI, washing with ice-cold assay buffer (3×4 ml). Filters were dried prior to addition of scintillation fluid and then counting in a Topcount scintillation counter. % Specific bound and competition binding curves were calculated using S-Plus software (Insightful).

Human 5HT1A receptor = target: T4, Human 5HT1A receptor (Homo sapiens, UniProt P08908); assay: Binding experiment for 5-HT1A receptor ([3H]8OHDPAT); conditions: transfected L929 cell membranes, [3H]8OHDPAT; for IC50: read-out: pIC50 5-HT1A (converted)
T4 construct: expressed in transfected cells; host or cells: L929 cells (stably transfected)
T4 sequence (P08908 1-422): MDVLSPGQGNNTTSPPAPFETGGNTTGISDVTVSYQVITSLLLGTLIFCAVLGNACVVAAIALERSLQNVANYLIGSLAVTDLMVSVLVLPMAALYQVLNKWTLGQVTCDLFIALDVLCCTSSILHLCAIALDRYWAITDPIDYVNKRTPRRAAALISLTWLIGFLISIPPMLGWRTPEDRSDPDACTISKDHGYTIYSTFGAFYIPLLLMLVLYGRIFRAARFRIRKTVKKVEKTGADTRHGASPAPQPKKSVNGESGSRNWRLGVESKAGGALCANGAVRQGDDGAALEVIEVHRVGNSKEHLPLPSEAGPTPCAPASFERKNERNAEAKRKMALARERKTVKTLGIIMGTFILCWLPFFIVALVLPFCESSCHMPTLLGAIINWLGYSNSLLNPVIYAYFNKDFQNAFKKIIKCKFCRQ
Description: as §1
Human 5HT1A receptor-transfected L929 cells were collected by scraping into ice-cold Tris-HCl buffer (50 mM, pH 7.4). The suspension was centrifuged (23 500×g, 10 min, 4° C.) and pellets stored at −70° C. until required. They were then thawed and briefly homogenised using an Ultra-Turrax T25 homogeniser prior to dilution to an appropriate protein concentration optimised for specific and non-specific binding. [^3H]80HDPAT (NEN, specific activity 127 Ci/mmol) was diluted in Tris-HCl assay buffer containing CaCl2 (50 mM and 4 mM, respectively; pH 7.7) at a concentration of 5 nmol/L. Prepared radioligand (50 μl) was then incubated (30 min, 37° C.) with membrane preparations from L929 cells stably-transfected with the h5HT1A gene construct (400 μl) and with 50 μl of either the 10% DMSO control, spiroxatrine (10^−6 mol/L final concentration), or compound of interest. Membrane-bound activity was detected by filtration through a Packard Filtermate harvester onto Unifilterplates, washing with ice-cold Tris-HCl buffer (3×4 ml), followed by drying. Scintillation fluid was added and membranes were counted in a Topcount scintillation counter. % Specific bound and competition binding curves were calculated using S-Plus software (Insightful).

T3 sequence (P31645 whole entry): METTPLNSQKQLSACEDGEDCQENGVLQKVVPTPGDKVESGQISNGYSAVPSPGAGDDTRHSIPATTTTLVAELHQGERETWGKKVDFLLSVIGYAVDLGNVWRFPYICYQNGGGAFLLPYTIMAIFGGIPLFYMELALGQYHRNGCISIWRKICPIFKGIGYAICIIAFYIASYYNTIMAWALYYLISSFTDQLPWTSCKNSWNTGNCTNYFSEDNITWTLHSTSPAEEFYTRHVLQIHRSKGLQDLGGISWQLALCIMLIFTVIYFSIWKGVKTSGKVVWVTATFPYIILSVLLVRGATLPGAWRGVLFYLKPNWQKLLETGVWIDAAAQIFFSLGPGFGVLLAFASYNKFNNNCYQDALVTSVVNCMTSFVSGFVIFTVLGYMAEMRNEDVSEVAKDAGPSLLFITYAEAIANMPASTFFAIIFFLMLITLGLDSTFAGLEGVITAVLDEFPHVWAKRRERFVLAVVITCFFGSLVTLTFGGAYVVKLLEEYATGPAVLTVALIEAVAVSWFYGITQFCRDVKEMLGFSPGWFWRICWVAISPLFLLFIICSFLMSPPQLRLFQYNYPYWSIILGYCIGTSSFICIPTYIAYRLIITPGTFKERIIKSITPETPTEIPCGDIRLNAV
T1 sequence (P35462 whole entry): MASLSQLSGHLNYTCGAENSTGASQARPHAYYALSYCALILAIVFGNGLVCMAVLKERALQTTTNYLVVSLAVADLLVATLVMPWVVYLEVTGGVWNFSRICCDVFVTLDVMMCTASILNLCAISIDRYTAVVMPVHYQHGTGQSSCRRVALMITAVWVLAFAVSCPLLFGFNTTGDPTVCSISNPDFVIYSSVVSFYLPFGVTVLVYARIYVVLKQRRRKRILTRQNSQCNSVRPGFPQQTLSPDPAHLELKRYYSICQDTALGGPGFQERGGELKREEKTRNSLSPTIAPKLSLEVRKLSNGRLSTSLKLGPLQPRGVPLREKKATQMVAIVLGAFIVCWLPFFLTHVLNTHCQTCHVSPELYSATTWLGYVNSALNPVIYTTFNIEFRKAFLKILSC
T2 sequence (P14416 whole entry): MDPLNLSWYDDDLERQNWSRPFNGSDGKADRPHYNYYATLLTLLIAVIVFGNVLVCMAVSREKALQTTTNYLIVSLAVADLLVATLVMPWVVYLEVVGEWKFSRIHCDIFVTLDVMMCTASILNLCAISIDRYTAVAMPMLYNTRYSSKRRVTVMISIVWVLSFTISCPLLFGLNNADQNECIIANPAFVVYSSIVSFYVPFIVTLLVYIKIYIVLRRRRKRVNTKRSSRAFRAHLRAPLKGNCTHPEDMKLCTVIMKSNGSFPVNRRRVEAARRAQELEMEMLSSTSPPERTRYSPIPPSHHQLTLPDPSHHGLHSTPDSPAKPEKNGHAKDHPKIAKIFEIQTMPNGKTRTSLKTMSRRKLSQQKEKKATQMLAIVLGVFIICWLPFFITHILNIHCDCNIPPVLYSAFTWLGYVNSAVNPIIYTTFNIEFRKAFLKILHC

Row | Structure (SMILES) | pIC50 D3 [1] | pIC50 D2 [2] | pIC50 5HTT (human 5HT transporter) | pIC50 5-HT1A (Human 5HT1A receptor) | IC50 [1] | IC50 [2] | IC50 (human 5HT transporter) | IC50 (Human 5HT1A receptor)
1 | COc1cc2c(cc1OC)C1=NOC(CN3CC=C(c4c[nH]c5ccc(F)cc45)CC3)C1CO2 (single isomer, unassigned) [Compound 12] | 7.3 | 6.5 | 8.0 | 7.6 | – | – | – | –
2 | COc1cc2c(cc1OC)C1=NOC(CN3CC=C(c4c[nH]c5cccc(F)c45)CC3)C1CO2 (single isomer, unassigned) [Compound 13] | 6.8 | 6.2 | 7.7 | 8.7 | – | – | – | –
3 | COc1cc2c(cc1OC)C1=NOC(CN3CCC(c4c[nH]c5c(F)cccc45)CC3)C1CO2 (racemic) [Compound 30] | 6.4 | 6.0 | 6.5 | 7.4 | – | – | – | –
4 | COc1cc2c(cc1OC)C1=NOC(CN3CCC(c4c[nH]c5ccc(F)cc45)CC3)C1CO2 (racemic) [Compound 2] | 7.2 | 7.2 | 7.4 | 8.8 | – | – | – | –
5 | COc1cc2c(cc1OC)C1=NOC(CNCCCc3c[nH]c4ccc(F)cc34)C1CO2 (single isomer, unassigned) [Compound 5] | 7.0 | 6.6 | 7.2 | >9 | – | – | – | –
6 | COc1cc2c(cc1OC)C1=NOC(CN3CC=C(c4c[nH]c5ccc(F)cc45)CC3)C1CO2 (racemic) [Compound 1] | – | – | – | – | 126 nM | 398 nM | 15.8 nM | 31.6 nM
7 | COc1cc2c(cc1OC)C1=NOC(CN3CCC(c4c[nH]c5cccc(F)c45)CC3)C1CO2 (racemic) [Compound 17] | 6.3 | 6.9 | 7.6 | 8.2 | – | – | – | –
8 | COc1cc2c(cc1OC)C1=NOC(CN3CC=C(c4c[nH]c5cc(F)ccc45)CC3)C1CO2 (racemic) [Compound 27] | 6.4 | 6.9 | 7.6 | 7.2 | – | – | – | –
9 | COc1cc2c(cc1OC)C1=NOC(CN3CC=C(c4c[nH]c5ccc(O)cc45)CC3)C1CO2 (racemic) [Compound 21] | – | – | – | – | 158 nM | 631 nM | 39.8 nM | 12.6 nM
10 | COc1ccc2[nH]cc(C3=CCN(CC4ON=C5c6cc(OC)c(OC)cc6OCC54)CC3)c2c1 (racemic) [Compound 7] | <6 | <6 | 6.4 | 8.1 | – | – | – | –
11 | COc1cc2c(cc1OC)C1=NOC(CNCCCc3c[nH]c4ccc(F)cc34)C1CO2 (single isomer, unassigned) [Compound 4] | 6.7 | 6.1 | 7.8 | 8.6 | – | – | – | –
12 | COc1cc2c(cc1OC)C1=NOC(CN3CCC(c4c[nH]c5ccc(Cl)cc45)CC3)C1CO2 (racemic) [Compound 32] | 6.6 | 6.8 | 7.4 | 8.5 | – | – | – | –
13 | COc1cc2c(cc1OC)C1=NOC(CN3CCC(c4c[nH]c5ccc(N)cc45)CC3)C1CO2 (racemic) [Compound 20] | <6 | 6.2 | 5.4 | 7.6 | – | – | – | –
14 | COc1cc2c(cc1OC)C1=NOC(CN3CC=C(c4c[nH]c5ccccc45)CC3)C1CO2 (single isomer, unassigned) [Compound 14] | 6.5 | 6.8 | 7.5 | 8.3 | – | – | – | –
15 | COc1cc2c(cc1OC)C1=NOC(CN3CC=C(c4c[nH]c5ccc(Br)cc45)CC3)C1CO2 (racemic) [Compound 10] | 6.5 | 6.3 | 6.7 | 8.3 | – | – | – | –
16 | Fc1ccc2[nH]cc(C3CCN(CC4ON=C5c6cc7c(cc6OCC54)OCCO7)CC3)c2c1 (single isomer, unassigned) [Compound 29] | 6.5 | 6.6 | 6.9 | 8.8 | – | – | – | –
17 | Fc1ccc2[nH]cc(C3=CCN(CC4ON=C5c6cc7c(cc6OCC54)OCCO7)CC3)c2c1 (single isomer, unassigned) [Compound 28] | 6.2 | 6.3 | 7.8 | 8.6 | – | – | – | –
18 | COc1cc2c(cc1OC)C1=NOC(CN3CC=C(c4c[nH]c5ccc(C)cc45)CC3)C1CO2 (racemic) [Compound 18] | 6.4 | 6.4 | 7.0 | 8.2 | – | – | – | –
19 | COc1cc2c(cc1OC)C1=NOC(CN3CC=C(c4c[nH]c5ccc(F)cc45)CC3)C1CO2 (single isomer, unassigned) [Compound 3] | 7.0 | 6.0 | 7.4 | 6.8 | – | – | – | –
20 | COc1cc2c(cc1OC)C1=NOC(CN3CCC(c4c[nH]c5ccc(F)cc45)CC3)C1CO2 (single isomer, unassigned) [Compound 11] | 7.2 | 7.2 | 6.9 | 8.9 | – | – | – | –
21 | Fc1ccc2[nH]cc(C3=CCN(CC4ON=C5c6ccc(N7CCOCC7)cc6OCC54)CC3)c2c1 (racemic) [Compound 55] | – | 6.3 | 7.5 | 7.8 | – | – | – | –
